Patent US9169241B2, “Quinolinyloxyphenylsulfonamides” (Max-Planck-Gesellschaft Zur Forderung der Wissenschaften …, priority 2009, dated 2015)
Where two headings read alike, the source gives them in different places.

Tests used:
Format in all cases: cell-based
U118 = assay: Apoptosis assay (Cellomics, nucleus condensation); conditions: Table III, read-out: Apoptosis induction in U118
Summary of the method: (§1)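 5000 cells/well, Hoechst 33342 live stain; cpd 12.5, 6.25, 3.125, 1.56, 0.78, 0.39 μM or DMSO; imaged 24 h + 48 h; nuclear condensation = intensity variation per nucleus; cell number loss noted.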

U138 = assay: Apoptosis assay (Cellomics, nucleus condensation); conditions: Table III, read-out: Apoptosis induction in U138
Summary of the method: as §1

C8161 = assay: Apoptosis assay (Cellomics, nucleus condensation); conditions: Homo sapiens, Table III, read-out: Apoptosis induction in C8161
Summary of the method: as §1

SF126 = assay: Apoptosis assay (Cellomics, nucleus condensation); conditions: Homo sapiens, SF-126, Table III, read-out: Apoptosis induction in SF126
Summary of the method: as §1

SF763 = assay: Apoptosis assay (Cellomics, nucleus condensation); conditions: Table III, read-out: Apoptosis induction in SF763
Summary of the method: as §1

Hs578T = assay: Apoptosis assay (Cellomics, nucleus condensation); conditions: Homo sapiens, Hs-578T, Table III, read-out: Apoptosis induction in Hs578T
Summary of the method: as §1

viable cells in culture = assay: Cell viability assay at 10 μM (CellTiter-Glo, Table VII); conditions: compound 10 μM, 72 h;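 also: graded A 0-20%; B 21-40%; C 41-60%; D over 60% viable cells relative to DMSO control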
Summary of the method: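 Viable cell number was measured with the CellTiter-Glo Luminescent Cell Viability Assay (Promega), following the manufacturer's protocol, which quantifies ATP as a marker of metabolically active cells. In 96-well plates, 1000 cells/well in 100 μl medium were exposed to compound at 10 μM, or to DMSO control, for 72 h. Values were calculated relative to DMSO-control ATP.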

[1] = Homo sapiens, HCT-116, HCT116 def, read-out: percentage (%) of viable cells HCT 116def
[2] = Homo sapiens, HCT-116, HCT116 wt, read-out: percentage (%) of viable cells HCT 116wt
[3] = Homo sapiens, HT-29, HT29, read-out: percentage (%) of viable cells HT29
[4] = Homo sapiens, NCI-H358, H358, read-out: percentage (%) of viable cells H358
[5] = Homo sapiens, NCI-H1650, H1650, read-out: percentage (%) of viable cells H1650
[6] = Homo sapiens, NCI-H1666, H1666, read-out: percentage (%) of viable cells H1666
[7] = Homo sapiens, NCI-H1975, H1975, read-out: percentage (%) of viable cells H1975
[8] = Homo sapiens, NCI-H1993, H1993, read-out: percentage (%) of viable cells H1993
[9] = Homo sapiens, A549, read-out: percentage (%) of viable cells A549
[10] = Homo sapiens, HCC827, read-out: percentage (%) of viable cells HCC827
[11] = Homo sapiens, SW480, read-out: percentage (%) of viable cells SW480
[12] = RKO, read-out: percentage (%) of viable cells RKO

| SMILES | IC50 (U118) | IC50 (U138) | IC50 (C8161) | IC50 (SF126) | IC50 (SF763) | IC50 (Hs578T) | viability at 10 µM (viable cells in culture; [1]) | viability at 10 µM (viable cells in culture; [2]) | viability at 10 µM (viable cells in culture; [3]) | viability at 10 µM (viable cells in culture; [4]) | viability at 10 µM (viable cells in culture; [5]) | viability at 10 µM (viable cells in culture; [6]) | viability at 10 µM (viable cells in culture; [7]) | viability at 10 µM (viable cells in culture; [8]) | viability at 10 µM (viable cells in culture; [9]) | viability at 10 µM (viable cells in culture; [10]) | viability at 10 µM (viable cells in culture; [11]) | viability at 10 µM (viable cells in culture; [12]) |
| --- | --- | --- | --- | --- | --- | --- | --- | --- | --- | --- | --- | --- | --- | --- | --- | --- | --- | --- |
| COc1cc2c(Oc3ccc(NS(=O)(=O)c4ccc(C)c(F)c4)cc3F)ccnc2cc1OCCCN1CCCC(C)C1 (stereo not drawn) [Example 56, 3-Fluoro-N-(3-fluoro-4-{6-methoxy-7-[3-(3-methyl-piperidin-1-yl)-propoxy]-quinolin-4-yloxy}-phenyl)-4-methyl-benzenesulfonamide] | ≤ 12.5 µM | ≤ 12.5 µM | ≤ 12.5 µM | ≤ 12.5 µM | ≤ 12.5 µM | ≤ 12.5 µM | 21 to 40% | 21 to 40% | 0 to 20% | 0 to 20% | 41 to 60% | 21 to 40% | 0 to 20% | 41 to 60% | > 60% | 21 to 40% | 0 to 20% | 21 to 40% |
| COc1cc2c(Oc3ccc(NS(=O)(=O)c4cccc(Oc5ccccc5)c4)cc3F)ccnc2cc1OCCCN1CCCC(C)C1 (stereo not drawn) [Example 59, N-(3-Fluoro-4-{6-methoxy-7-[3-(3-methyl-piperidin-1-yl)-propoxy]-quinolin-4-yloxy}-phenyl)-3-phenoxy-benzenesulfonamide] | ≤ 12.5 µM | ≤ 12.5 µM | ≤ 12.5 µM | ≤ 12.5 µM | ≤ 12.5 µM | ≤ 12.5 µM | 0 to 20% | 0 to 20% | 0 to 20% | 21 to 40% | > 60% | 41 to 60% | 21 to 40% | 0 to 20% | 21 to 40% | 21 to 40% | 0 to 20% | 0 to 20% |
| COc1cc2c(Oc3ccc(NS(=O)(=O)c4ccc(F)c(C#N)c4)cc3F)ccnc2cc1OCCCN1CCCC(C)C1 (stereo not drawn) [Example 72, 3-Cyano-4-fluoro-N-(3-fluoro-4-{6-methoxy-7-[3-(3-methyl-piperidin-1-yl)-propoxy]-quinolin-4-yloxy}-phenyl)-benzenesulfonamide] | ≤ 12.5 µM | 12.5 to 50 µM | ≤ 12.5 µM | 12.5 to 50 µM | ≤ 12.5 µM | ≤ 12.5 µM | 41 to 60% | 21 to 40% | 0 to 20% | 21 to 40% | 41 to 60% | 21 to 40% | 41 to 60% | 0 to 20% | > 60% | 41 to 60% | 0 to 20% | 0 to 20% |
| COc1cc2c(Oc3ccc(NS(=O)(=O)c4cc(Cl)cc(Cl)c4OC)cc3F)ccnc2cc1OCCCN1CCCCC1 [Example 34, 3,5-Dichloro-N-{3-fluoro-4-[6-methoxy-7-(3-piperidin-1-yl-propoxy)-quinolin-4-yloxy]-phenyl}-2-methoxy-benzenesulfonamide] | ≤ 12.5 µM | ≤ 12.5 µM | ≤ 12.5 µM | ≤ 12.5 µM | ≤ 12.5 µM | 12.5 to 50 µM | 21 to 40% | 0 to 20% | 21 to 40% | 0 to 20% | 21 to 40% | 21 to 40% | 0 to 20% | 0 to 20% | > 60% | > 60% | 0 to 20% | 0 to 20% |
| COc1cc2c(Oc3ccc(NS(=O)(=O)c4ccc(Cl)s4)cc3F)ccnc2cc1OCCCN1CCCC(C)C1 (stereo not drawn) [Example 63, 5-Chloro-thiophene-2-sulfonic acid (3-fluoro-4-{6-methoxy-7-[3-(3-methyl-piperidin-1-yl)-propoxy]-quinolin-4-yloxy}-phenyl)-amide] | ≤ 12.5 µM | ≤ 12.5 µM | ≤ 12.5 µM | ≤ 12.5 µM | ≤ 12.5 µM | ≤ 12.5 µM | 21 to 40% | 0 to 20% | 21 to 40% | 0 to 20% | 41 to 60% | 41 to 60% | 0 to 20% | 0 to 20% | 21 to 40% | 21 to 40% | 0 to 20% | > 60% |

Continued, in another order:

| IC50 (U118) | IC50 (U138) | IC50 (C8161) | IC50 (SF126) | IC50 (SF763) | IC50 (Hs578T) | SMILES | viability at 10 µM (viable cells in culture; [1]) | viability at 10 µM (viable cells in culture; [2]) | viability at 10 µM (viable cells in culture; [3]) | viability at 10 µM (viable cells in culture; [4]) | viability at 10 µM (viable cells in culture; [5]) | viability at 10 µM (viable cells in culture; [6]) | viability at 10 µM (viable cells in culture; [7]) | viability at 10 µM (viable cells in culture; [8]) | viability at 10 µM (viable cells in culture; [9]) | viability at 10 µM (viable cells in culture; [10]) | viability at 10 µM (viable cells in culture; [11]) | viability at 10 µM (viable cells in culture; [12]) |
| --- | --- | --- | --- | --- | --- | --- | --- | --- | --- | --- | --- | --- | --- | --- | --- | --- | --- | --- |
| ≤ 12.5 µM | ≤ 12.5 µM | ≤ 12.5 µM | ≤ 12.5 µM | ≤ 12.5 µM | ≤ 12.5 µM | COc1cc2c(Oc3c(Cl)cc(NS(=O)(=O)c4c(F)cccc4F)cc3Cl)ccnc2cc1OCCCN1CCN(C)CC1 [Example 88, N-(3,5-Dichloro-4-{6-methoxy-7-[3-(4-methyl-piperazin-1-yl)-propoxy]-quinolin-4-yloxy}-phenyl)-2,6-difluoro-benzenesulfonamide] | 0 to 20% | 41 to 60% | 21 to 40% | 0 to 20% | 41 to 60% | 21 to 40% | 0 to 20% | 0 to 20% | 41 to 60% | 0 to 20% | 21 to 40% | 41 to 60% |
| ≤ 12.5 µM | ≤ 12.5 µM | ≤ 12.5 µM | ≤ 12.5 µM | ≤ 12.5 µM | ≤ 12.5 µM | COc1cc2c(Oc3ccc(NS(=O)(=O)c4ccccc4C(F)(F)F)cc3F)ccnc2cc1OCCCNC1CCOCC1 [Example 95, N-(3-Fluoro-4-{6-methoxy-7-[3-(tetrahydro-pyran-4-ylamino)-propoxy]-quinolin-4-yloxy}-phenyl)-2-trifluoromethyl-benzenesulfonamide] | 21 to 40% | 21 to 40% | 0 to 20% | 0 to 20% | 21 to 40% | 21 to 40% | 0 to 20% | 0 to 20% | > 60% | 21 to 40% | 0 to 20% | 0 to 20% |
| ≤ 12.5 µM | ≤ 12.5 µM | ≤ 12.5 µM | ≤ 12.5 µM | ≤ 12.5 µM | ≤ 12.5 µM | COc1cc2c(Oc3cccc(NS(=O)(=O)c4ccccc4C(F)(F)F)c3)ccnc2cc1OCCCN1CCN(C)CC1 [Example 102, N-(3-{6-Methoxy-7-[3-(4-methyl-piperazin-1-yl)-propoxy]-quinolin-4-yloxy}-phenyl)-2-trifluoromethyl-benzenesulfonamide] | 0 to 20% | 0 to 20% | 0 to 20% | 0 to 20% | 41 to 60% | 41 to 60% | 21 to 40% | 21 to 40% | 41 to 60% | 21 to 40% | 0 to 20% | 21 to 40% |
